Laboratory results as given in article PMC8486872, “A rational blueprint for the design of chemically-controlled protein switches” (Nature Communications, 2021).
“And” between values parts separate entries of the source, which are not always exact repeats. Identical values can stand only once. “Also recorded” adds a separate entry of the source.

How the values were obtained:
[1] = molecular target: T1, LD3 in the presence of Drug-1 (Homo sapiens, UniProt Q07817, DEL45-84/F105I/R102E); assay: SPR pre-screening and competition of Drug-1 resistant Bcl-XL mutants binding LD3; details: Fig S10d
T1 construct: 6xHis (N); made in house; host or cells: E. coli BL21(DE3)
Protocol: Supplementary Figure 10: Biophysical and cellular characterization of designed Drug-1- […]
a) Pre-screening of Drug-1 resistant Bcl-XL mutants by SPR. 5 µM of Bcl-XL and five mutants were mixed with 10 µM of Drug-1 and injected over the LD3 immobilized chip to analyse the binding response. […]
dilutions of Drug-1 were pre-mixed with 4 µM LD3 and injected over iBcl-XL_v3 immobilized chip to collect the response. c) Dissociation constant measurement of iBcl-XL_v3 and LD3. Sensorgrams are in black dashed curves and the fitted curves in solid red lines. Kd was using a 1:1 binding model. d) […]
normalized to the positive control (DMSO group). […]

[2] = system: JAK/STAT pathway SEAP expression in HEK293T cells; assay: CDH-GEMS receptor signaling SEAP assay; format: cell-based
From the text: To test modularity and performance robustness of the CDHs in different molecular contexts, we inserted these modules in the generalizable extracellular molecule sensor (GEMS) receptor signaling pathway platform[24] and built CDH-GEMS. In these constructs the CDHs are localized extracellularly and function as ectodomain switches, fused to the backbone of the erythropoietin receptor, and an intracellular interleukin 6 receptor domain which activates the JAK/STAT pathway (Fig. 3d). The CDH-GEMS trigger the activation of the JAK/STAT pathway by the dimerization of their subunits. Thus, the drugs are expected to split the CDHs inactivating the signaling pathway as assessed by the expression of the reporter protein SEAP. All three CDH-GEMS were responsive to their respective drugs dynamic response range varied from approximately 6-fold (CDH-2) to 8-fold (CDH-1,3) (Fig. 3e). […] The CDH-GEMS were also reversible upon intermittent drug treatment (Supplementary Fig. 7h, i). Despite that comparisons between CDH-TFs and CDH-GEMS are not straightforward due to differences in the reporter signaling pathways, we observe a general trend for the CDHs to present lower IC50s when used as extracellular modules, which is consistent with overcoming drug permeability issues in cells.
HEK293T cells were maintained in DMEM medium with 10% FBS (Gibco) and Pen/Strep (Thermo Fisher). Cells were maintained and split every two days at around 80% confluence. HEK293T cells were seeded 24 h before transfection, and transfected with the lipofectamine 3000 kit (Thermo Fisher). Plasmids were cotransfected according to the Table S7. For the drug OFF-switch experiments, drugs were added 12 h post transfection and incubated with cells for 24 h before the SEAP detection assay.
Secreted alkaline phosphatase (SEAP) activity (U/L) in cell culture supernatants was quantified by kinetic measurements at 405 nm (1 min/measurement for 30 cycles) of absorbance increase due to phosphatase-mediated hydrolysis of para-nitrophenyl phosphate (pNPP).
Apparent IC50s of SPR drug competition assay were calculated using three-parameter nonlinear regression in GraphPad Prism (Version 8.3.0). Representative data of cellular assays are presented as individual values and mean values (bars). n = 3 refers to biological replicates. All IC50/EC50 values of cellular assays (CDH-TF, CDH-GEMS, AIR-TF and AIR-GEMS) reported were calculated using four-parameter nonlinear regression ± s.d.
Supplementary Figure 9: Comparison of ON-state reporter expression of weak affinity variants of LD3 in CDH-1/2-GEMS platform. a) ON-state expression of CDH-1-GEMS with LD3 and LD3_v3. b) Drug dose-dependent responses in engineered cells determined for the CDH-1-GEMS with LD3 and LD3_v3. c) ON-state expression of CDH-2-GEMS with LD3 and LD3_v3. d) Drug dose-dependent responses in engineered cells determined for the CDH-2-GEMS with LD3 and LD3_v3. In the data shown HEK293T cells were […]
quantification was done 24 hours after drug treatment. a, c) The bar charts show the mean ± s.d. of n = 3 biologically independent samples overlaid with a scatter dot plot of the original data points. b, d) Each […]
parameter nonlinear regression.
(§1) (1 picture or pasted object on this page, not shown here)

Bcl2:LD3 complex (CDH-2) = Bcl2:LD3 complex (CDH-2) (Homo sapiens, UniProt P10415); assay: SEC-MALS drug-induced monomerization of Bcl2:LD3; details: 50 µM proteins, 100 µM drug
Protocol: LD6 was further characterized by Size Exclusion Chromatography coupled to Light Scattering (SEC-MALS) for solution behavior, and to study dimerization and drug-induced monomerization properties. LD6 was injected at 50–100 µM into a Superdex^TM 75 300/10 GL column (GE Healthcare) using a high-performance liquid chromatography system (Ultimate 3000, Thermo Scientific) at a flow rate of 0.5 ml/min. The UV spectrum at 280 nm was collected along with static light scatter signal by a MALS device (miniDAWN TREOS, Wyatt). […] Then the mixtures were treated with either 100 µM (two-fold excess) of the corresponding drugs or the same volume of DMSO to detect complex formation and forced dissociation in SEC-MALS. The light scatter signal of the sample was collected from three different angles and the results were analyzed using the ASTRA software (version 6.1, Wyatt).
Supplementary Figure 1: Biophysical characterization of CDH-2.
Drug concentrations from 0.01 nM to
10 µM were pre-incubated with 4 µM LD3, then the mixtures were injected over a Bcl2-immobilized chip.
Response units reflect the remaining interaction of Bcl2 and LD3 in the presence of serial diluted Drug-
2. d) SEC-MALS analysis of CDH-2 showing Bcl2:LD3 complex with DMSO (black trace) and Bcl2:LD3
and LD3 (16 kDa) eluted around 22 minutes.
as §1

T1 sequence (Q07817 with tags, fused parts or gaps DEL45-84/R102E/F105I limits assumed): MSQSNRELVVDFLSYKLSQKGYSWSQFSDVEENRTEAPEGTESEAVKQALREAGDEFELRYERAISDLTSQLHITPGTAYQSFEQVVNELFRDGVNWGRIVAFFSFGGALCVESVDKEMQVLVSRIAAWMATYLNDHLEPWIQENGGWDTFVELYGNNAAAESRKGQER
Sequence of Bcl2:LD3 complex (CDH-2) (P10415 with tags, fused parts or gaps): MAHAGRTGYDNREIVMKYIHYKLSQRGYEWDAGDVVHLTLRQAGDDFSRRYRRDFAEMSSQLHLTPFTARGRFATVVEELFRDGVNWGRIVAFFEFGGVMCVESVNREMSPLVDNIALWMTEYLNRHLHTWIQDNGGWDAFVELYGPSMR

In the case of CN(C)CC#Cc1ccc(OCCCc2sc(N3CCc4cccc(C(=O)Nc5nc6ccccc6s5)c4C3)nc2C(=O)O)c(F)c1 [Drug-1, A-1155463], the iBcl-XL_v3 response ([1]; Drug-1 0.001 nM) is reported as 174.876 and 175.206 and 177.174, the iBcl-XL_v3 response ([1]; Drug-1 0.01 nM) is reported as 215.202 and 222.394 and 221.188 and the iBcl-XL_v3 response ([1]; Drug-1 0.05 nM) is reported as 207.736 and 204.171 and 203.036. The iBcl-XL_v3 response ([1]; Drug-1 0.1 nM) was 189.507 and 193.343 and 194.134, the iBcl-XL_v3 response ([1]; Drug-1 0.5 nM) was 204.985 and 206.922 and 206.979 and the iBcl-XL_v3 response ([1]; Drug-1 1 nM) was 184.864 and 185.609 and 186.635. The iBcl-XL_v3 response ([1]; Drug-1 10 nM) was 194.117 and 193.916 and 200.456, the iBcl-XL_v3 response ([1]; Drug-1 50 nM) was 193.965 and 195.069 and 198.505 and the iBcl-XL_v3 response ([1]; Drug-1 100 nM) was 183.254 and 186.244 and 183.907. For the same molecule, the iBcl-XL_v3 response ([1]; Drug-1 500 nM) was 165.059 and 166.616 and 165.103, the iBcl-XL_v3 response ([1]; Drug-1 1000 nM) was 154.762 and 156.9 and 154.341 and the IC50 ([1]; iBcl-XL_v3, best-fit, inhibitor vs. response (three parameters)) was 705 nM. For the same molecule, the logIC50 ([1]; iBcl-XL_v3, best-fit, three parameters, Drug-1 in nM) was 2.848, the SEAP % ([2]; Suppl Fig 9b, BclxL:LD3, 0.001 nM) was 18.0122% and 17.4443% and 16.8298% and the SEAP % ([2]; Suppl Fig 9b, BclxL:LD3, 0.005 nM) was 16.6899% and 17.1312% and 17.1781%. The SEAP % ([2]; Suppl Fig 9b, BclxL:LD3, 0.01 nM) was 17.4444% and 15.5469% and 16.1047%, the SEAP % ([2]; Suppl Fig 9b, BclxL:LD3, 0.05 nM) was 15.1537% and 15.6285% and 14.5618% and the SEAP % ([2]; Suppl Fig 9b, BclxL:LD3, 0.1 nM) was 14.6667% and 14.1653% and 14.4377%. For the same molecule, the SEAP % ([2]; Suppl Fig 9b, BclxL:LD3, 0.5 nM) was 13.4918% and 13.7573% and 13.7645%, the SEAP % ([2]; Suppl Fig 9b, BclxL:LD3, 1 nM) was 11.4623% and 11.7897% and 11.4884% and the SEAP % ([2]; Suppl Fig 9b, BclxL:LD3, 5 nM) was 7.87% and 8.2239% and 7.705%. For the same molecule, the SEAP % ([2]; Suppl Fig 9b, BclxL:LD3, 10 nM) was 5.487% and 5.0968% and 5.0693%, the SEAP % ([2]; Suppl Fig 9b, BclxL:LD3, 50 nM) was 4.04% and 4.459% and 3.462% and the SEAP % ([2]; Suppl Fig 9b, BclxL:LD3, 100 nM) was 4.1212% and 3.83% and 3.424%. For the same molecule, the SEAP % ([2]; Suppl Fig 9b, BclxL:LD3, 500 nM) was 3.2684% and 3.043% and 3.776%, the SEAP % ([2]; Suppl Fig 9b, BclxL:LD3, 1000 nM) was 3.47% and 3.522% and 3.463% and the SEAP % ([2]; Suppl Fig 9b, BclxL:LD3_v3, 0.001 nM) was 16.3076% and 17.437% and 16.859%. The SEAP % ([2]; Suppl Fig 9b, BclxL:LD3_v3, 0.005 nM) was 14.9031% and 15.6748% and 15.9103%, the SEAP % ([2]; Suppl Fig 9b, BclxL:LD3_v3, 0.01 nM) was 13.8744% and 14.7636% and 15.1685% and the SEAP % ([2]; Suppl Fig 9b, BclxL:LD3_v3, 0.05 nM) was 12.8457% and 12.494% and 13.0699%. The SEAP % ([2]; Suppl Fig 9b, BclxL:LD3_v3, 0.1 nM) was 9.936% and 9.732% and 9.834%, the SEAP % ([2]; Suppl Fig 9b, BclxL:LD3_v3, 0.5 nM) was 8.327% and 7.455% and 7.64% and the SEAP % ([2]; Suppl Fig 9b, BclxL:LD3_v3, 1 nM) was 9.561% and 8.788% and 8.726%. The SEAP % ([2]; Suppl Fig 9b, BclxL:LD3_v3, 5 nM) was 4.582% and 4.8104% and 5.942%, the SEAP % ([2]; Suppl Fig 9b, BclxL:LD3_v3, 10 nM) was 4.563% and 3.586% and 4.47% and the SEAP % ([2]; Suppl Fig 9b, BclxL:LD3_v3, 50 nM) was 5.174% and 5.025% and 4.8595%. The SEAP % ([2]; Suppl Fig 9b, BclxL:LD3_v3, 100 nM) was 4.401% and 4.122% and 4.248%, the SEAP % ([2]; Suppl Fig 9b, BclxL:LD3_v3, 500 nM) was 4.318% and 3.762% and 3.577% and the SEAP % ([2]; Suppl Fig 9b, BclxL:LD3_v3, 1000 nM) was 4.822% and 4.215% and 3.859%.

CC1(C)CCC(CN2CCN(c3ccc(C(=O)NS(=O)(=O)c4ccc(NCC5CCOCC5)c([N+](=O)[O-])c4)c(Oc4cnc5[nH]ccc5c4)c3)CC2)=C(c2ccc(Cl)cc2)C1 [Drug-2, Venetoclax] was tested, and the “disruption of Bcl2:LD3 complex by SEC-MALS” value (Bcl2:LD3 complex (CDH-2)) was “effectively disrupts; also recorded: did not result in complex formation”, the SEAP % ([2]; Suppl Fig 9d, Bcl2:LD3, 0.001 nM) was 300.653% and 318.178% and 392.457% and the SEAP % ([2]; Suppl Fig 9d, Bcl2:LD3, 0.01 nM) was 308.454% and 345.509% and 340.557%. The SEAP % ([2]; Suppl Fig 9d, Bcl2:LD3, 0.1 nM) was 274.777% and 330.791% and 315.073%, the SEAP % ([2]; Suppl Fig 9d, Bcl2:LD3, 1 nM) was 266.802% and 312.808% and 313.179% and the SEAP % ([2]; Suppl Fig 9d, Bcl2:LD3, 10 nM) was 230.526% and 261.334% and 264.64%. The SEAP % ([2]; Suppl Fig 9d, Bcl2:LD3, 50 nM) was 182.557% and 182.048% and 191.603%, the SEAP % ([2]; Suppl Fig 9d, Bcl2:LD3, 100 nM) was 137.415% and 148.555% and 171.413% and the SEAP % ([2]; Suppl Fig 9d, Bcl2:LD3, 500 nM) was 103.855% and 121.158% and 118.471%. The SEAP % ([2]; Suppl Fig 9d, Bcl2:LD3, 1000 nM) was 85.4687% and 78.7046% and 88.4921%, the SEAP % ([2]; Suppl Fig 9d, Bcl2:LD3_v3, 0.001 nM) was 435.755% and 579.505% and 634.353% and the SEAP % ([2]; Suppl Fig 9d, Bcl2:LD3_v3, 0.01 nM) was 426.219% and 513.058% and 543.118%. The SEAP % ([2]; Suppl Fig 9d, Bcl2:LD3_v3, 0.1 nM) was 389.885% and 497.895% and 507.442%, the SEAP % ([2]; Suppl Fig 9d, Bcl2:LD3_v3, 1 nM) was 349.489% and 416.083% and 425.558% and the SEAP % ([2]; Suppl Fig 9d, Bcl2:LD3_v3, 10 nM) was 179.661% and 237.904% and 242.508%. For the same molecule, the SEAP % ([2]; Suppl Fig 9d, Bcl2:LD3_v3, 50 nM) was 112.482% and 132.539% and 150.605%, the SEAP % ([2]; Suppl Fig 9d, Bcl2:LD3_v3, 100 nM) was 97.6884% and 119.034% and 118.118% and the SEAP % ([2]; Suppl Fig 9d, Bcl2:LD3_v3, 500 nM) was 69.1684% and 95.9179% and 92.604%. The SEAP % ([2]; Suppl Fig 9d, Bcl2:LD3_v3, 1000 nM) was 52.9029% and 66.0602% and 70.7894%.
